Experiment [1] has as its target T1, human calcitonin receptor (Homo sapiens, UniProt P30988).
T1 construct: expressed in transfected cells
T1 sequence (P30988 25-474): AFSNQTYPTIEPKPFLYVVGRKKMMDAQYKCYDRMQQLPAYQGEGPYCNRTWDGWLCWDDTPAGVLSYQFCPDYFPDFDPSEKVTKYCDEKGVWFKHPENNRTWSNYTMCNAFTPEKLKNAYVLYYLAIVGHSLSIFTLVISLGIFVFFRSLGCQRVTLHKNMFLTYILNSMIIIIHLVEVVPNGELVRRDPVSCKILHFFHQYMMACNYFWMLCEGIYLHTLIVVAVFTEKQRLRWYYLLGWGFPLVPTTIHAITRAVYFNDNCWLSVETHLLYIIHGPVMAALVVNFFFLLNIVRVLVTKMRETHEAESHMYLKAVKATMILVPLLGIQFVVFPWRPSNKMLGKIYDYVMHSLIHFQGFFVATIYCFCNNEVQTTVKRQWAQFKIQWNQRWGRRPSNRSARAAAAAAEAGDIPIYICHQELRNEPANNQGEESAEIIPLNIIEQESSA
Kind of experiment: Assay (II)a functional assay, human calcitonin receptor (CRE luciferase, BHK cells).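 Note: luminescence from a CRE-driven luciferase reporter, read by single photon counting after cells were exposed to test samples for 3 h at 37 °C under 5% CO2.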 The experiment is classed as cell-based. Particulars: read-out: hCTR funct. EC50.

In experiment [2] the target is T2, human amylin receptor (amylin 3(a) receptor: human calcitonin receptor + RAMP-3) (Homo sapiens, UniProt O60896+P30988).
T2 construct: expressed in transfected cells
T2 sequence (P30988 25-474): T1 sequence (P30988 25-474)
T2 sequence (O60896 24-148 partner): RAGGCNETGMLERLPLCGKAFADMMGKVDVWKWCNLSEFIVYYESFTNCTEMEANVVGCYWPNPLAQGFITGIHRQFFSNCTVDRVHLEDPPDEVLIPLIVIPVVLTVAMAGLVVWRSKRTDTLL
Kind of experiment: Assay (II)a functional assay, human amylin receptor (CRE luciferase, BHK cells). In kind it is cell-based. To be noted: for EC50: read-out: hAmylin-R funct. EC50.
Description: Assay (II)—Functional Assays
Consequently, transcription is activated by promoters containing multiple copies of the cAMP response element (CRE).
The cell line was further transfected with RAMP-3, using standard methods.
After incubation overnight at 37° C. and 5% CO2, the growth medium was replaced by 50 μl/well assay medium (DMEM (without phenol red), Glutamax™, 10% FBS, and 10 mM Hepes, pH 7.4). Further, 50 μl/well of standard or sample in assay buffer were added. After 3 hours incubation at 37° C. and 5% CO2, the assay medium with standard or sample were removed and replaced by 100 μl/well PBS. Further, 100 μl/well LucLite™ was added. The plates were sealed and incubated at room temperature for 30 minutes. Finally, luminescence was measured on a TopCounter (Packard) in SPC (single photon counting) mode.

Another experiment concerns the target T3, human amylin receptor (Homo sapiens, UniProt O60896+P30988).
T3 construct: expressed in transfected cells
T3 sequence (P30988 25-474): T1 sequence (P30988 25-474)
T3 sequence (O60896 24-148 partner): T2 sequence (O60896 24-148 partner)
Kind of experiment: Assay (V) binding to the human amylin receptor (SPA, 125I-rat amylin). To be noted: human amylin receptor membranes, SPA; read-out: hAmylin-R bind IC50. A digest of the protocol: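 IC50, taken as receptor affinity, came from one-site binding competition analysis of scintillation proximity counts. Amylin 3(a)/CRE-luc cell membranes (35 ng/μL final) were mixed with SPA beads (0.05 mg/well) in 50 mM Hepes pH 7.4 containing CaCl2, MgCl2, 0.1% OA and 0.02% Tween20.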

Experiment [3] concerns the target T1, human calcitonin receptor. Put plainly: Assay (VII) binding to the human calcitonin receptor (SPA, 125I-Calcitonin).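 Note: cell membranes coupled to SPA beads, competitive displacement read by scintillation counting, IC50 derived from a one-site competition fit as a measure of receptor affinity.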 To be noted: read-out: hCTR bind IC50.
Setting [4] is: Table 6, human functional selectivity (hCTR EC50 / hAmylin-R EC50).
[5] abbreviates: Table 6a, human functional selectivity (hCTR EC50 / hAmylin-R EC50), at least 5.
The mark [6] stands for this setting: Table 6j, hCTR funct. EC50 / hAmylin-R funct. EC50.
The mark [7] stands for this setting: Table 6k, hCTR funct. EC50 / hAmylin-R funct. EC50.
The mark [8] stands for this setting: functional assay, human amylin receptor.

Read-outs that look alike come from different tables or passages of the source. Numbered stars: 1 amine (or outer) side, 2 acyl side, 3 side chain; on linkers, the order of the positions; unused ones are H or OH. Bridge positions count the residues as written; N and C are the ends. Side chains are listed from the residue outwards. Peptide text beside a SMILES is read from it. * marks the point of attachment. C20 diacid = O=C(O)CCCCCCCCCCCCCCCCCCC(=O)*; γGlu = O=C(O)[C@H](CCC(=O)[*:2])N[*:1]; AEEA = NCCOCCOCC(=O)O

The values below come from patent US8575091B1, “Amylin analogues and pharmaceutical compositions thereof” (Novo Nordisk A/S, priority 2012, dated 2013).

As for `CC[C@H](C)[C@H](NC(=O)[C@H](C)NC(=O)CNC(=O)[C@H](Cc1ccccc1)NC(=O)[C@H](CC(N)=O)NC(=O)[C@@H]1CCCN1C(=O)[C@H](CO)NC(=O)[C@H](CO)NC(=O)[C@H](Cc1c[nH]cn1)NC(=O)[C@H](CCCNC(=N)N)NC(=O)[C@H](CC(C)C)NC(=O)[C@H](Cc1ccccc1)NC(=O)[C@H](CC(N)=O)NC(=O)[C@H](C)NC(=O)[C@H](CC(C)C)NC(=O)[C@H](CCCNC(=N)N)NC(=O)[C@H](CCC(N)=O)NC(=O)[C@@H](NC(=O)[C@H](C)NC(=O)[C@@H]1CSSC[C@H](NC(=O)[C@H](CCCNC(=N)N)NC(=O)[C@@H](N)CCCCNC(=O)COCCOCCNC(=O)CC[C@H](NC(=O)CCCCCCCCCCCCCCCCCCC(=O)O)C(=O)O)C(=O)N[C@@H](CC(N)=O)C(=O)N[C@@H]([C@@H](C)O)C(=O)N[C@@H](C)C(=O)N[C@@H]([C@@H](C)O)C(=O)N1)[C@@H](C)O)C(=O)N1CCC[C@H]1C(=O)N[C@@H](CO)C(=O)N[C@@H](CO)C(=O)N[C@H](C(=O)N[C@@H](CC(N)=O)C(=O)N[C@H](C(=O)NCC(=O)N[C@@H](CO)C(=O)N[C@@H](Cc1c[nH]cn1)C(=O)N[C@H](C(=O)N[C@@H](Cc1ccc(O)cc1)C(N)=O)[C@@H](C)O)C(C)C)[C@@H](C)O` [Example 45] (H-K([AEEA-γGlu-C20 diacid])RCNTATCATQRLANFLRHSSPNFGAIPSSTNVGSHTY-NH2; disulfide 3-8), the values for the concentration giving a half-maximal response (EC50) in experiment [1] and in experiment [2] (setting [8]) were 10.1 nM and 0.594 nM, respectively. Besides, the “Ratio hCT/hAmylin funct.” value in experiment [2] (setting [4]), in experiment [2] (setting [5]), in experiment [2] (setting [6]) and in experiment [2] (setting [7]) was 17.0 throughout. Moreover, the half-maximal inhibitory concentration (IC50) (commonly the concentration needed to halve the response being measured) turned out to be 0.552 nM at human amylin receptor and 14.8 nM in experiment [3].

`CC[C@H](C)[C@H](NC(=O)[C@H](C)NC(=O)CNC(=O)[C@H](Cc1ccccc1)NC(=O)[C@H](CC(N)=O)NC(=O)[C@@H]1CCCN1C(=O)[C@H](CO)NC(=O)[C@H](CO)NC(=O)[C@H](Cc1c[nH]cn1)NC(=O)[C@H](CCCNC(=N)N)NC(=O)[C@H](CC(C)C)NC(=O)[C@H](Cc1ccccc1)NC(=O)[C@H](CC(N)=O)NC(=O)[C@H](C)NC(=O)[C@H](CC(C)C)NC(=O)[C@H](CCCNC(=N)N)NC(=O)[C@H](CCC(N)=O)NC(=O)[C@@H](NC(=O)[C@H](C)NC(=O)[C@@H]1CSSC[C@H](NC(=O)[C@H](CCCNC(=N)N)NC(=O)CNC(=O)CC[C@H](NC(=O)CCCCCCCCCCCCCCCCCCC(=O)O)C(=O)O)C(=O)N[C@@H](CC(N)=O)C(=O)N[C@@H]([C@@H](C)O)C(=O)N[C@@H](C)C(=O)N[C@@H]([C@@H](C)O)C(=O)N1)[C@@H](C)O)C(=O)N1CCC[C@H]1C(=O)N[C@@H](CO)C(=O)N[C@@H](CO)C(=O)N[C@H](C(=O)N[C@@H](CC(N)=O)C(=O)N[C@H](C(=O)NCC(=O)N[C@@H](CO)C(=O)N[C@@H](CC(N)=O)C(=O)N[C@H](C(=O)N[C@@H](Cc1ccc(O)cc1)C(N)=O)[C@@H](C)O)C(C)C)[C@@H](C)O` [Example 46] ({C20 diacid-γGlu}-GRCNTATCATQRLANFLRHSSPNFGAIPSSTNVGSNTY-NH2; disulfide 3-8): the EC50 (commonly the concentration giving half of the maximal effect) in experiment [1] turned out to be 0.899 nM; in experiment [2] (setting [8]) it was 0.088 nM. For the same compound, the IC50 on human amylin receptor stood at 0.195 nM; in experiment [3], 9.53 nM.

Consider `CC[C@H](C)[C@H](NC(=O)[C@H](C)NC(=O)CNC(=O)[C@H](Cc1ccccc1)NC(=O)[C@H](CC(N)=O)NC(=O)[C@@H]1CCCN1C(=O)[C@H](CO)NC(=O)[C@H](CO)NC(=O)[C@H](Cc1c[nH]cn1)NC(=O)[C@H](CCCNC(=N)N)NC(=O)[C@H](CC(C)C)NC(=O)[C@H](Cc1ccccc1)NC(=O)[C@H](CC(N)=O)NC(=O)[C@H](C)NC(=O)[C@H](CC(C)C)NC(=O)[C@H](CCCNC(=N)N)NC(=O)[C@H](CCC(N)=O)NC(=O)[C@@H](NC(=O)[C@H](C)NC(=O)[C@@H]1CSSC[C@H](NC(=O)[C@H](CCCNC(=N)N)NC(=O)CNC(=O)CC[C@H](NC(=O)CCCCCCCCCCCCCCCCCCC(=O)O)C(=O)O)C(=O)N[C@@H](CC(N)=O)C(=O)N[C@@H]([C@@H](C)O)C(=O)N[C@@H](C)C(=O)N[C@@H]([C@@H](C)O)C(=O)N1)[C@@H](C)O)C(=O)N1CCC[C@H]1C(=O)N[C@@H](CO)C(=O)N[C@@H](CO)C(=O)N[C@H](C(=O)N[C@@H](CC(N)=O)C(=O)N[C@H](C(=O)NCC(=O)N[C@@H](CO)C(=O)N[C@@H](Cc1c[nH]cn1)C(=O)N[C@H](C(=O)N[C@@H](Cc1ccc(O)cc1)C(N)=O)[C@@H](C)O)C(C)C)[C@@H](C)O` [Example 47] ({C20 diacid-γGlu}-GRCNTATCATQRLANFLRHSSPNFGAIPSSTNVGSHTY-NH2; disulfide 3-8), for which the EC50 in experiment [1] came out at 1.32 nM; in experiment [2] (setting [8]), 0.222 nM. The “Ratio hCT/hAmylin funct.” value in experiment [2] (setting [4]), in experiment [2] (setting [5]), in experiment [2] (setting [6]) and in experiment [2] (setting [7]) was 6.0 each time. Besides, the IC50 amounted to 0.344 nM on human amylin receptor and 15.5 nM in experiment [3].

On to `CC[C@H](C)[C@H](NC(=O)[C@H](C)NC(=O)CNC(=O)[C@H](Cc1ccccc1)NC(=O)[C@H](CC(N)=O)NC(=O)[C@@H]1CCCN1C(=O)[C@H](CO)NC(=O)[C@H](CO)NC(=O)[C@H](Cc1c[nH]cn1)NC(=O)[C@H](CCCNC(=N)N)NC(=O)[C@H](CC(C)C)NC(=O)[C@H](Cc1ccccc1)NC(=O)[C@H](CC(N)=O)NC(=O)[C@H](C)NC(=O)[C@H](CC(C)C)NC(=O)[C@H](CCCNC(=N)N)NC(=O)[C@H](CCC(N)=O)NC(=O)[C@@H](NC(=O)[C@H](C)NC(=O)[C@@H]1CSSC[C@H](NC(=O)[C@@H](N)CCCCNC(=O)COCCOCCNC(=O)CC[C@H](NC(=O)CCCCCCCCCCCCCCCCCCC(=O)O)C(=O)O)C(=O)N[C@@H](CC(N)=O)C(=O)N[C@@H]([C@@H](C)O)C(=O)N[C@@H](C)C(=O)N[C@@H]([C@@H](C)O)C(=O)N1)[C@@H](C)O)C(=O)N1CCC[C@H]1C(=O)N[C@@H](CO)C(=O)N[C@@H](CO)C(=O)N[C@H](C(=O)N1CCC[C@H]1C(=O)N[C@H](C(=O)NCC(=O)N[C@@H](CO)C(=O)N[C@@H](CC(N)=O)C(=O)N[C@H](C(=O)N[C@@H](Cc1ccc(O)cc1)C(N)=O)[C@@H](C)O)C(C)C)[C@@H](C)O` [Example 49], for which the values for the EC50 in experiment [1] and in experiment [2] (setting [8]) were 2.39 nM and 0.106 nM, respectively. Also, the IC50 amounted to 1.19 nM at human amylin receptor and 12.9 nM in experiment [3].

`CC[C@H](C)[C@H](NC(=O)[C@H](C)NC(=O)CNC(=O)[C@H](Cc1ccccc1)NC(=O)[C@H](CC(N)=O)NC(=O)[C@@H]1CCCN1C(=O)[C@H](CO)NC(=O)[C@H](CO)NC(=O)[C@H](Cc1c[nH]cn1)NC(=O)[C@H](CCCNC(=N)N)NC(=O)[C@H](CC(C)C)NC(=O)[C@H](Cc1ccccc1)NC(=O)[C@H](CC(N)=O)NC(=O)[C@H](C)NC(=O)[C@H](CC(C)C)NC(=O)[C@H](CCCNC(=N)N)NC(=O)[C@H](CCC(N)=O)NC(=O)[C@@H](NC(=O)[C@H](C)NC(=O)[C@@H]1CSSC[C@H](NC(=O)[C@@H](N)CCCCNC(=O)COCCOCCNC(=O)CC[C@H](NC(=O)CCCCCCCCCCCCCCCCCCC(=O)O)C(=O)O)C(=O)N[C@@H](CC(N)=O)C(=O)N[C@@H]([C@@H](C)O)C(=O)N[C@@H](C)C(=O)N[C@@H]([C@@H](C)O)C(=O)N1)[C@@H](C)O)C(=O)N1CCC[C@H]1C(=O)N1CCC[C@H]1C(=O)N[C@@H](CO)C(=O)N[C@H](C(=O)N1CCC[C@H]1C(=O)N[C@H](C(=O)NCC(=O)N[C@@H](CO)C(=O)N[C@@H](CC(N)=O)C(=O)N[C@H](C(=O)N[C@@H](Cc1ccc(O)cc1)C(N)=O)[C@@H](C)O)C(C)C)[C@@H](C)O` [Example 53] (H-K([AEEA-γGlu-C20 diacid])CNTATCATQRLANFLRHSSPNFGAIPPSTPVGSNTY-NH2; disulfide 2-7): the half-maximal effective concentration (EC50) in experiment [1] worked out at 0.625 nM; in experiment [2] (Table 6j, human amylin receptor functional), 0.064 nM. For the same compound, the “Ratio hCT/hAmylin funct.” value in experiment [2] (setting [4]), in experiment [2] (setting [5]), in experiment [2] (setting [6]) and in experiment [2] (setting [7]) was 9.8 throughout. Besides, the half-inhibitory concentration (IC50) on human amylin receptor is 0.052 nM; in experiment [3], 5.38 nM.
